{
  "source": "patent US9512178B2",
  "about": "“Neurogenic brain-derived neurotrophic factor peptides” (Research Foundation for Mental Hygiene, Inc., priority 2012, dated 2016)",
  "key": {"[1]": {"system": "E18 primary hippocampal neurons", "assay": "Western blots of neuronal markers, densitometry", "assay_type": "cell-based, mouse", "conditions": "5 days", "description": "(§1) Following treatment in 6-well plates, cells were washed 2× in glucose buffered saline, GBS (5.4 mM KCl, 138 mM NaCl, 22 mM glucose, and 2 mM Na—KPO pH 7.2), and then lysed by 5 min incubation on ice in 100 or 150 μl of ice-cold RIPA buffer (PBS, 1% w/v NP-40 from Fisher Scientific, 0.1% w/v SDS, and 0.5% w/v sodium desoxycholate) containing 1 mM AEBSF (Gold Biotechnology, St. Louis, Mo., USA), 10 μg/ml aprotinin (Sigma-Aldrich, St. Louis, Mo., USA), and 20 μg/ml of leupeptin and pepstatin (US Biochemicals, Cleveland, Ohio, USA), and phosphatase inhibitors: NaF, Na orthovanadate, (3-glycerophosphate, and microcystein (Sigma-Aldrich, St. Louis, Mo., USA). Extracts were prepared by collecting and pooling a minimum of 2 wells by scraping, and lysates were centrifuged at 20,000×g for 10 min at 4° C. Protein concentration of each cell lysate was determined using the BCA kit (Thermo Scientific, Rockford, Ill., USA). The lysates (7.5-20 μg total protein) were separated on 10% SDS-PAGE gels (except for BDNF where 12% gels were employed) and transferred to 0.45 μm PVDF membrane (Pall, Pensacola, Fla., USA) for probing with antibodies as noted. Blots were blocked for 1 hr at 37° C. in 1×TBST (0.05% Tween 20 in TBS) containing 5% w/v blotting grade dry milk (Bio-rad, Hercules, Calif., USA), incubated in primary antibody overnight in blocking buffer at 4° C., washed 3×10 min in TBST at room temperature, followed by incubation with secondary antibody, i.e., peroxidase-conjugated anti-mouse or anti rabbit IgG (Jackson ImmunoResearch Laboratories, West Grove, Pa., USA) diluted in blocking buffer. Blots were washed 3×10 min in TBST and immunoreactive protein bands were visualized with enhanced chemiluminescence (ECL) reagents (Pierce, Rockford, Ill., USA). The ECL films of the blots were scanned and analyzed using Multi Gauge software version 3.0 (Fujifilm, Tokyo, Japan).\n(§2) The following primary antibodies were used: rabbit polyclonal anti-NFM (1:1000; Chemicon/Millipore, Billerica, Mass., USA); mouse monoclonal anti-NeuN, clone A60 (1:500; Millipore, Billerica, Mass., USA); rabbit polyclonal anti-Tuj-1, (3—III-tubulin (Covance; 1:800, Emeryville, Calif., USA); mouse monoclonal SMI 52 to the adult isoforms of MAP-2, MAP2a,b (1:1000; Covance, Emeryvilly, Calif., USA); rabbit polyclonal anti-Synapsin I (1:2000; Stressgen, Farmingdale, N.Y., USA); rabbit monoclonal anti-PSD95 (1:1000; Cell signaling, Danvers, Mass., USA); anti tau 92e (1:10000); mouse monoclonal anti-BDNF (1:1000; Calbiochem, Gibbstown, N.J., USA); rabbit polyclonal anti-TrkB (total) (1:500; Santa Cruz Biotechnology, Santa Cruz, Calif., USA); rabbit polyclonal anti-pTrkB (Tyr706) (1:400; Santa Cruz Biotechnology, Santa Cruz, Calif., USA), TrkC (1:1000; Cruz Biotechnology, Santa Cruz, Calif., USA); and pTrkY490 (1:500; Upstate USA Inc., Charlottesville, Va., USA). For loading control, the blots were developed with rabbit polyclonal antibody to GAPDH (1:2000; Santa Cruz Biotechnology, Santa Cruz, Calif., USA).\nTo biochemically study the effect of BDNF peptides in inducing expression of neuronal markers, protein samples were recovered from cells treated with peptides B-5, B-4, B-3, or vehicle for five days. As a positive control, protein samples were collected from cells treated with BDNF at 20 ng/ml (0.79 nM) or 100 ng/ml (3.95 nM) (FIG. 3D, E). Western blots of the cell lysates were developed with antibodies to Synapsin I (presynaptic marker), PSD95 (postsynaptic marker), NeuN (late neuronal marker), NFM (early neuronal marker), MAP2 (dendritic marker), 0-IIItubulin (early neuronal marker), and tau 92e (axonal marker)."}, "BDNF": {"system": "BDNF", "assay": "BDNF expression, Western blot, 5 days treatment", "assay_type": "cell-based, mouse", "conditions": "vs control medium", "description": "as §1, §2\nTo investigate the molecular mechanism by which the BDNF peptides promoted neurogenic/neurotrophic activities, the hippocampal primary cultured neurons were treated with the peptides or BDNF for five days and compared with the control medium treated cells."}, "BDNF and TrkB": {"system": "BDNF and TrkB", "assay": "Induction of BDNF and TrkB expression after pre-treatment with CHX or K252a", "assay_type": "cell-based, mouse", "conditions": "two days of treatment", "description": "(§3) Peptides were dissolved in water in serial dilutions of 10 mM, 1 mM, 100 μM and 10 μM from which the necessary amount was added directly to the culture medium to a final concentration of 0.05 μM, 1 μM, or 10 μM. The BDNF (Peprotech, NJ, USA) was used as a reference in concentrations of 20 ng/ml (0.79 nM) and 100 ng/ml (3.95 nM). Cycloheximide (CHX) (Sigma-Aldrich, St Louis, Mo., USA) was used for blocking protein synthesis. CHX original stock was 100 mg/ml (355.4 mM) in DMSO; from a second stock of 35.54 mM in DMSO, the dilutions were made to the final concentrations of 100 μM. The K252a (CALBIOCHEM/EMD) was used to inhibit the TrkB Receptor. From a stock of 100 μM in DMSO, K252a was diluted to a final working concentration of 200 nM. The E18 primary hippocampal cells were pre-treated with CHX or K252a 1 h prior to the addition of the peptides or BDNF and a time course of these treatments for 15 min, 60 min and 2 days was studied.\nTo evaluate whether the effect of B-5 and B-3 in induction of the expression of BDNF and TrkB was via the activation of the TrkB receptor and required signal transduction via TrkB and new protein synthesis, mouse embryonic E18 cultured hippocampal cells were pre-treated with the protein synthesis inhibitor, cycloheximide (CHX) or the Trk inhibitor K252a for 1 h, and then added Peptide B-5 at a concentration of 0.1 μM (the dose that gave the maximum induction of BDNF expression, FIGS. 5A and B) or BDNF 20 ng/ml as a positive control (FIG. 7C,D). A time course of these treatments was studied with Peptide B-5 or BDNF for 15 min, 60 min and two days."}, "TrkB receptor": {"molecular_target": "T1, TrkB receptor (Mus musculus, UniProt P15209)", "T1 construct": "endogenous in cells; host or cells: primary hippocampal neurons from embryonic day 18 C57BL/6 mice", "T1 sequence (P15209 32-821)": "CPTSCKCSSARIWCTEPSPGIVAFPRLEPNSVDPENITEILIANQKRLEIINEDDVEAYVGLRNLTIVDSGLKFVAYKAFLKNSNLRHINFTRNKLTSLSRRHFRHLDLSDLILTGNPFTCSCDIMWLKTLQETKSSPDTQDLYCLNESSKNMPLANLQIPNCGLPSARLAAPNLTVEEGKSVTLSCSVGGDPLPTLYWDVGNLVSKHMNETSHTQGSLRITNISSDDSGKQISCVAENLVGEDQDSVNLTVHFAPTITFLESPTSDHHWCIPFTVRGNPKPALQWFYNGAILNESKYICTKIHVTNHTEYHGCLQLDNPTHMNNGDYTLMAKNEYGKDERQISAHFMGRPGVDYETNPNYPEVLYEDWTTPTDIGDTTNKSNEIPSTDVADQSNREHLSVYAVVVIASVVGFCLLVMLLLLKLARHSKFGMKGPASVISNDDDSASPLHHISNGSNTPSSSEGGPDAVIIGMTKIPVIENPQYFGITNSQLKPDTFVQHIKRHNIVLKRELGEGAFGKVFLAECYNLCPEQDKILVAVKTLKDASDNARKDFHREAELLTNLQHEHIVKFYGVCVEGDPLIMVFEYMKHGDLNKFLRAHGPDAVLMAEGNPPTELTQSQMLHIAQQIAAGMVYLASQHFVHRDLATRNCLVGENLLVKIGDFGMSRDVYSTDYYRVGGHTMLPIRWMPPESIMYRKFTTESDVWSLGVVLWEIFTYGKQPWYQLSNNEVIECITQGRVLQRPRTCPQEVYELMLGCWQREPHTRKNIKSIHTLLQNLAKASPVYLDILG", "assay": "TrkB phosphorylation (Tyr 706) and TrkB level in primary E18 hippocampal cells, with or without K252a", "assay_type": "cell-based", "conditions": "K252a pretreatment 1 h (200 nM), then BDNF or peptides B-5 or B-3 for 5 min", "description": "as §3, §1\nas §2, with “Calif., USA). […]” for “Calif., USA).”"}, "[2]": {"system": "mouse E18 primary hippocampal neurons", "assay": "Toxicity of the peptides: phase contrast morphology and LDH assay, 5 days treatment", "assay_type": "cell-based", "conditions": "1 μM", "source_text": "To screen these peptides, primary neuronal cell cultures were used from embryonic day 18 (E18) C57BL/6 mouse hippocampus. At the fourth day in vitro (DIV), the culture medium was exchanged with the medium containing the peptides. The primary neuronal cultures were established as taught in the art (see, e.g., Cardenas-Aguayo Mdel, Santa-Olalla et al. 2003, hereby incorporate by reference). Briefly, C57BL/6 time pregnant E18 female mice from Charles River Labs were anesthetized and killed by cervical dislocation following our Institutional Animal Care and Use Committee (IACUC) regulations and approved protocol. Embryos were removed and placed in cold Hibernate A (available from Brain bits, Springfield, Ill., USA), and all of the following steps were performed in ice-cold Hibernate A, under a stereoscopic (dissection) microscope placed in a laminar flow hood. Fetal brains were removed carefully and fore brain were separated. Then, the hippocampus, including the cortex surrounding the area of the hippocampus, was dissected and cut into small pieces using microsurgical scissors. The cut tissue was transferred with number 5 forceps to 15 ml tubes containing 0.1% trypsin in Versene (Invitrogen Life Technologies, Grand Island, N.Y., USA) and incubated for 15 min at 37° C. followed by inactivation with 10% fetal bovine serum (FBS) in Neurobasal complete medium (Neurobasal Medium supplemented with 2×B-27, 0.30% glutamine, and penicillin/streptomycin 0.1 mg/ml and 0.1 U/ml respectively). All medium components were purchased from Invitrogen, Grand Island, N.Y., USA. […]\nTo study any toxic effect of the peptides, mouse E18 primary hippocampal neurons were treated with the five BDNF peptides individually for up to 5 days at different doses [5 nM, 25 nM, 50 nM (data not shown), 100 nM (0.1 μM), 1000 nM (1 μM), and 10,000 nM (10 μM)]. […] Accordingly, there was no significant change in the viability of cells treated with any of the peptides as evaluated by the lactate dehydrogenase (LDH) assay (see FIG. 2B). […]"}, "[3]": {"system": "primary E18 hippocampal cells", "assay": "Rescue of H2O2-induced neurotoxicity (LDH assay)", "assay_type": "cell-based, mouse", "conditions": "then treatment 24 h", "description": "Evaluation of cell death and cell viability was performed using the LDH kit (Promega, Madison Wis., USA), following manufactures instructions. Percentages of cell death and cell viability were plotted separately.\nIn order to evaluate the potential neuroprotective effect of BDNF peptides, the primary E18 hippocampal cells were challenged with 0, 60, 80 and 100 μM H2O2 for 6 hours, and then cells were washed with culture medium and fresh culture medium was added containing the peptides B-5 or B-3 or BDNF or BDNF plus B-3 (see FIGS. 4A and 4B). After 24 hours, the cell viability was assayed by the LDH method."}, "[4]": {"conditions": "phase III, amyotrophic lateral sclerosis, daily subcutaneous administration; cited from earlier work"}},
  "data": [
    {"molecule": "Ac-D-K-R-H-CONH2 [Peptide B-4]", "values": [
      {"measurement": "expression of NeuN (Western blot)", "setting": "[1]; 0.1 μM", "result": "increased the expression of NeuN"},
      {"measurement": "expression of PSD95 (Western blot)", "setting": "[1]; 0.1 μM", "result": "significant increment"},
      {"measurement": "level of tau (92e antibody, Western blot)", "setting": "[1]", "result": "Neither BNDF nor peptides B-3, B-4 or B-5 had any significant effect"},
      {"measurement": "expression of BDNF (Western blot)", "setting": "BDNF", "result": "induced the expression of BDNF"}
    ]},
    {"molecule": "COC(=O)[C@@]1(O)C[C@H]2O[C@]1(C)n1c3ccccc3c3c4c(c5c6ccccc6n2c5c31)C(=O)NC4", "note": "[Peptide K252a, reference compound]", "values": [
      {"measurement": "block of the increase in expression of BDNF caused by BDNF peptides or BDNF", "setting": "BDNF and TrkB; K252a pre-exposure 1 h (200 nM)", "result": "can be blocked"},
      {"measurement": "inhibition of the phosphorylation of TrkB at Tyrosine 706", "setting": "TrkB receptor", "result": "clear inhibition"}
    ]},
    {"molecule": "Ac-R-R-G-E-CONH2 [Peptide B-1]", "values": [
      {"measurement": "cell death (LDH assay) vs vehicle treated cells", "setting": "[2]", "result": "significant reduction in cell death"}
    ]},
    {"molecule": "C[C@@H]1C[C@@H]([C@H](O)CC2CC(=O)NC(=O)C2)C(=O)[C@@H](C)C1", "note": "[CHX, Cycloheximide, reference compound]", "values": [
      {"measurement": "block of the increase in expression of BDNF caused by BDNF peptides or BDNF", "setting": "BDNF and TrkB; CHX pre-exposure 1 h (100 μM)", "result": "can be blocked"}
    ]},
    {"molecule": "BDNF: Brain derived neurotrophic factor (Peprotech), used as a reference at 20 ng/ml and 100 ng/ml", "values": [
      {"measurement": "cell death (LDH)", "setting": "[3]; 0 μM H2O2 6 h", "result": "not statistically significant"},
      {"measurement": "cell viability (LDH)", "setting": "[3]; 0 μM H2O2 6 h", "result": "increased cell viability significantly"},
      {"measurement": "cell death (LDH)", "setting": "[3]; 60 μM H2O2 6 h", "result": "some reduction in cell death"},
      {"measurement": "cell viability (LDH)", "setting": "[3]; 60 μM H2O2 6 h", "result": "increased cell viability significantly"},
      {"measurement": "cell death (LDH)", "setting": "[3]; 80 μM H2O2 6 h", "result": "not statistically significant"},
      {"measurement": "cell death (LDH)", "setting": "[3]; 100 μM H2O2 6 h", "result": "not statistically significant"},
      {"measurement": "clinical benefit", "setting": "[4]", "result": "no clinical benefit"},
      {"measurement": "NFM expression (Western blot)", "setting": "[1]; 20 ng/ml", "result": "increased NFM expression in a similar way"},
      {"measurement": "expression of PSD95 (Western blot)", "setting": "[1]; 20 ng/ml", "result": "increase"},
      {"measurement": "NFM expression (Western blot)", "setting": "[1]; 100 ng/ml", "result": "increased NFM expression in a similar way"},
      {"measurement": "expression of PSD95 (Western blot)", "setting": "[1]; 100 ng/ml", "result": "increase"},
      {"measurement": "level of tau (92e antibody, Western blot)", "setting": "[1]", "result": "Neither BNDF nor peptides B-3, B-4 or B-5 had any significant effect"}
    ]}
  ]
}
